In ChEMBL document CHEMBL1201862, “PubChem BioAssay data set” (2004):
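Five compound concentrations were applied to cells in 96-well plates for 48 hours; endpoints were derived by simple linear interpolation of the resulting dose-response curve. At the GI50, growth is halved.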 Active and inactive are the calls of the source. Rule as the data show it: active = GI50 up to about 1.1 µM and inactive = higher.

Legend:
Assay in all cases: NCI anticancer screen, dose series, 48 h
XF498 = system: XF498
SNB-78 = system: SNB-78
SF-539 = system: SF-539
HCT-15 = system: HCT-15
HOP-92 = system: HOP-92
IGROV-1 = system: IGROV-1
SN12C = system: SN12C
SK-OV-3 = system: SK-OV-3
SR = system: SR
LXFL 529 = system: LXFL 529
U-251 = system: U-251
UO-31 = system: UO-31
SW-620 = system: SW-620
OVCAR-5 = system: OVCAR-5
HCC 2998 = system: HCC 2998
RPMI-8226 = system: RPMI-8226
NCI-H460 = system: NCI-H460
A498 = system: A498
UACC-257 = system: UACC-257
OVCAR-4 = system: OVCAR-4
Malme-3M = system: Malme-3M
786-0 = system: 786-0
HOP-62 = system: HOP-62
OVCAR-3 = system: OVCAR-3
TK-10 = system: TK-10
SNB-19 = system: SNB-19
ACHN = system: ACHN
MOLT-4 = system: MOLT-4
OVCAR-8 = system: OVCAR-8
NCI-H522 = system: NCI-H522
UACC-62 = system: UACC-62
SF-268 = system: SF-268
A549 = system: A549
M14 = system: M14
SK-MEL-28 = system: SK-MEL-28
SF-295 = system: SF-295
NCI-H23 = system: NCI-H23
NCI-H226 = system: NCI-H226
RXF 393 = system: RXF 393
CCRF-CEM = system: CCRF-CEM
EKVX = system: EKVX
HCT-116 = system: HCT-116
DMS-114 = system: DMS-114
SK-MEL-2 = system: SK-MEL-2
COLO 205 = system: COLO 205
KM12 = system: KM12
SK-MEL-5 = system: SK-MEL-5
LOX IMVI = system: LOX IMVI
HT-29 = system: HT-29
K562 = system: K562
CAKI-1 = system: CAKI-1
HL-60 = system: HL-60
M19-MEL = system: M19-MEL
DMS-273 = system: DMS-273
SNB-75 = system: SNB-75
KM-20L2 = system: KM-20L2
HOP-18 = system: HOP-18
DLD-1 = system: DLD-1

CCOc1cc2c(C(=O)CC)c(O)ccc2o1
GI50 (XF498): > 49.9 µM (inactive) | GI50 (SNB-78): > 96.6 µM (inactive) | GI50 (SF-539): > 100 µM (inactive) | GI50 (HCT-15): > 100 µM | GI50 (HOP-92): > 100 µM (inactive) | GI50 (IGROV-1): > 100 µM (inactive) | GI50 (SN12C): > 100 µM (inactive) | GI50 (SK-OV-3): > 48.1 µM (inactive) | GI50 (SR): 33.7 µM (inactive) | GI50 (LXFL 529): 64.9 µM (inactive) | GI50 (U-251): > 100 µM (inactive) | GI50 (UO-31): > 100 µM (inactive) | GI50 (SW-620): 57.3 µM (inactive) | GI50 (OVCAR-5): > 100 µM (inactive) | GI50 (HCC 2998): > 100 µM (inactive) | GI50 (RPMI-8226): > 58.1 µM (inactive) | GI50 (NCI-H460): > 100 µM (inactive) | GI50 (A498): > 52.7 µM (inactive) | GI50 (UACC-257): > 100 µM (inactive) | GI50 (OVCAR-4): > 40.8 µM (inactive) | GI50 (Malme-3M): > 100 µM (inactive) | GI50 (786-0): > 100 µM (inactive) | GI50 (HOP-62): > 100 µM (inactive) | GI50 (OVCAR-3): > 100 µM (inactive) | GI50 (TK-10): > 79.8 µM (inactive) | GI50 (SNB-19): > 100 µM (inactive) | GI50 (ACHN): > 100 µM (inactive) | GI50 (MOLT-4): 58.1 µM (inactive) | GI50 (OVCAR-8): > 79.6 µM (inactive) | GI50 (NCI-H522): > 100 µM (inactive) | GI50 (UACC-62): > 37.6 µM (inactive) | GI50 (SF-268): > 100 µM (inactive) | GI50 (A549): > 100 µM (inactive) | GI50 (M14): > 55 µM (inactive) | GI50 (SK-MEL-28): > 35.3 µM (inactive) | GI50 (SF-295): > 100 µM (inactive) | GI50 (NCI-H23): > 100 µM (inactive) | GI50 (NCI-H226): > 100 µM (inactive) | GI50 (RXF 393): > 45.1 µM (inactive) | GI50 (CCRF-CEM): 24.9 µM (inactive) | GI50 (EKVX): > 100 µM (inactive) | GI50 (HCT-116): > 48 µM (inactive) | GI50 (DMS-114): > 54.5 µM (inactive) | GI50 (SK-MEL-2): > 100 µM (inactive) | GI50 (COLO 205): > 67.9 µM (inactive) | GI50 (KM12): > 100 µM (inactive) | GI50 (SK-MEL-5): > 39.3 µM (inactive) | GI50 (LOX IMVI): > 100 µM (inactive) | GI50 (HT-29): 39 µM (inactive) | GI50 (K562): 28.8 µM (inactive) | GI50 (CAKI-1): > 100 µM (inactive) | GI50 (HL-60): 12.9 µM (inactive) | GI50 (M19-MEL): 31.1 µM (inactive) | GI50 (DMS-273): > 100 µM (inactive) | GI50 (SNB-75): > 91 µM (inactive) | GI50 (KM-20L2): > 100 µM (inactive)

CC(=O)OCC1OC(OC(C)=O)C(NC#N)C(OC(C)=O)C1OC(C)=O (stereo not drawn)
GI50 (SF-539): > 100 µM (inactive) | GI50 (HCT-15): > 100 µM | GI50 (HOP-92): > 100 µM (inactive) | GI50 (IGROV-1): > 100 µM (inactive) | GI50 (SN12C): > 100 µM (inactive) | GI50 (SK-OV-3): > 100 µM (inactive) | GI50 (SR): 73.5 µM (inactive) | GI50 (LXFL 529): 67.9 µM (inactive) | GI50 (U-251): > 100 µM (inactive) | GI50 (UO-31): 36.1 µM (inactive) | GI50 (SW-620): > 100 µM (inactive) | GI50 (OVCAR-5): > 100 µM (inactive) | GI50 (HCC 2998): > 100 µM (inactive) | GI50 (RPMI-8226): 67.8 µM (inactive) | GI50 (HOP-18): > 100 µM (inactive) | GI50 (NCI-H460): 68.1 µM (inactive) | GI50 (A498): > 100 µM (inactive) | GI50 (OVCAR-4): > 100 µM (inactive) | GI50 (Malme-3M): > 100 µM (inactive) | GI50 (786-0): > 100 µM (inactive) | GI50 (HOP-62): > 100 µM (inactive) | GI50 (OVCAR-3): > 100 µM (inactive) | GI50 (TK-10): > 100 µM (inactive) | GI50 (SNB-19): > 100 µM (inactive) | GI50 (ACHN): 49.7 µM (inactive) | GI50 (MOLT-4): 86.5 µM (inactive) | GI50 (OVCAR-8): > 100 µM (inactive) | GI50 (NCI-H522): > 100 µM (inactive) | GI50 (UACC-62): > 100 µM (inactive) | GI50 (SF-268): > 100 µM (inactive) | GI50 (A549): > 100 µM (inactive) | GI50 (M14): 97.7 µM (inactive) | GI50 (SK-MEL-28): > 100 µM (inactive) | GI50 (SF-295): 80.4 µM (inactive) | GI50 (NCI-H23): > 100 µM (inactive) | GI50 (RXF 393): > 100 µM (inactive) | GI50 (CCRF-CEM): 43.7 µM (inactive) | GI50 (HCT-116): > 100 µM (inactive) | GI50 (DMS-114): > 100 µM (inactive) | GI50 (SK-MEL-2): 50.7 µM (inactive) | GI50 (COLO 205): > 100 µM (inactive) | GI50 (KM12): > 100 µM (inactive) | GI50 (SK-MEL-5): 73.1 µM (inactive) | GI50 (LOX IMVI): 39.2 µM (inactive) | GI50 (HT-29): > 100 µM (inactive) | GI50 (K562): > 100 µM (inactive) | GI50 (CAKI-1): > 100 µM (inactive) | GI50 (HL-60): > 100 µM (inactive) | GI50 (DLD-1): > 100 µM (inactive) | GI50 (M19-MEL): > 100 µM (inactive) | GI50 (DMS-273): > 100 µM (inactive) | GI50 (SNB-75): > 100 µM (inactive)
